We go through 22 compounds from patent US7968552B2, “Oxadiazolidinedione compound” (Astellas Pharma Inc., priority 2006, dated 2011).

Each structure is given as a SMILES string.

The target in one experiment is T1, human GPR40 (Homo sapiens, UniProt O14842, R211H).
T1 construct: expressed in transfected cells
In words: Measurement of GPR40 agonist action (FLIPR, intracellular calcium). It counts as cell-based. Conditions: CHO cell strain expressing human GPR40; changes in fluorescence intensity after 1 minute of the measurement. The text has this: Test Method 1: Measurement of GPR40 Agonist Action […]
i) Cloning of Human GPR40
Complete length sequence of GPR40 was obtained by carrying out a PCR method in accordance with the procedure shown below using a human genomic DNA (Clontech) as the template.
An oligonucleotide consisting of the nucleotide sequence represented by SEQ ID NO:1 was used as the forward primer, and an oligonucleotide consisting of the nucleotide sequence represented by SEQ ID NO:2 as the reverse primer. In this connection, a nucleotide sequence comprising a XbaI recognition region is added to the respective 5′-termini of the aforementioned forward primer and reverse primer. PCR was carried out in the presence of 5% dimethyl sulfoxide (DMSO) using a Taq DNA polymerase (Ex Taq DNA polymerase; Takara Bio), by repeating 30 times of a cycle consisting of 94° C. (15 seconds)/55° C. (30 seconds)/72° C. (1 minute). As a result, a DNA fragment of about 0.9 kbp was amplified. This DNA fragment was digested with XbaI and then inserted into the XbaI site of a plasmid pEF-BOS-dhfr (Nucleic acids Research, 18, 5322, 1990), thereby obtaining a plasmid pEF-BOS-dhfr-GPR40.
Nucleotide sequence of the GPR40 gene in the pEF-BOS-dhfr-GPR40 was determined by the dideoxy terminator method using a DNA sequencer (ABI 377 DNA Sequencer, Applied Biosystems). Nucleotide sequence of the GPR40 gene was as the nucleotide sequence represented by SEQ ID NO:3. The nucleotide sequence represented by SEQ ID NO:3 has an open reading frame (ORF) of 903 bases, and the amino acid sequence deduced from this ORF (300 amino acids) was as the amino acid sequence represented by SEQ ID NO:4. […]
ii) Preparation of GPR40 Stable Expression Cell
As the cell for expressing GPR protein, CHO dhfr cell (a dihydrofolate reductase (dhfr)-deficient CHO cell) was used. Also, as the plasmid for expressing GPR40 protein, the plasmid pEF-BOS-dhfr-GPR40 obtained in the aforementioned i) was used. The CHO dhfr cell was inoculated into αMEM medium containing 10% fetal calf serum (FCS) using a 6 well plate (Asahi Techno Glass) and cultured overnight to an 80 to 90% confluence, and then 2 μg per well of the plasmid pEF-BOS-dhfr-GPR40 was gene-transferred using a transfection reagent (Lipofectamine 2000; Invitrogen). After 24 hours of culturing from the gene transfer, the cells were diluted and inoculated again. […] After 20 days of culturing, the thus formed colonies of cells were individually recovered and cultured to obtain CHO cells stably expressing GPR40. From these, cells having high reactivity for intrinsic ligands oleic acid and linoleic acid were selected. […]
iii) Measurement of GPR40 Agonist Action
This test was measured by FLIPR (registered trademark, Molecular Device) using a change in intracellular calcium concentration as the index. The test method is shown in the following.
A CHO cell strain in which human GPR40 was expressed was inoculated into a 384 well black plate (Becton Dickinson) in 6×10^3 cells per well portions and cultured overnight in a CO2 incubator.
Using Calcium-3 assay kit (Molecular Device), one bottle of the phosphorescent pigment was dissolved in 10 ml of HBSS-HBEPES buffer (pH 7.4, 1×HBSS, 20 mM HEPES, Invitrogen). A 35.68 mg of probenecid (Sigma) was dissolved in 250 μl of 1M NaOH and adjusted by adding 250 μl of the HBSS-HEPES buffer. A phosphorescent pigment solution was prepared by mixing 16 ml of HBSS-HEPES buffer, 640 μl of the phosphorescent pigment and 32 μl of probenecid per one plate. The medium was discarded from the plate, and the phosphorescent pigment solution was dispensed in 40 μl per well portions and then incubated at room temperature for 2 hours. Each compound to be tested was dissolved in DMSO and then diluted with HBSS-HEPES buffer and dispensed in 10 μl portions into the plate, thereby starting the reaction, and changes in the intracellular calcium concentration were measured by FLIPR. […]

In experiment [1] the test system is blood glucose after glucose loading. As to the kind of experiment: Normal mice single oral glucose tolerance test. The class given is in vivo. Conditions: Mus musculus, 0.5 h, male ICR mice, 10 mg/kg orally 30 minutes before glucose loading (2 g/kg), 30 minutes after glucose loading, based on control group, read-out: Blood glucose lowering ratio. On the procedure: Test Method 3: Normal Mice Single Oral Glucose Tolerance Test
This test examined on the blood glucose suppression action of compounds to be tested after glucose loading, using normal mice. The test method is shown below.
Male ICR mice (6 weeks of age) after 1 week of preliminary rearing were subjected to overnight fasting and used as the animals to be tested. Each compound to be tested was made into a 0.5% methyl cellulose suspension and orally administered at a dose of 10 mg/kg 30 minutes before the glucose loading (2 g/kg). Administration of 0.5% methyl cellulose was used in the control group. Blood glucose lowering ratio (%) after 30 minutes of glucose loading was calculated based on the control group.

For another experiment, the system named is MIN6 cell. As to the kind of experiment: Insulin secretion-promoting action using MIN6 cell. Also noted: species or system mouse. Conditions: relative activity value at 1 μM of each compound, based on 100% control (DMSO), 2 hours incubation. As to the method:
Test Method 2: Insulin Secretion-Promoting Action Using MIN6 Cell
This rest examined insulin acceleration action of compounds to be tested using a mouse pancreas β cell strain, MIN6 cell. The test method is shown in the following.
The MIN6 cell was dispensed in 5×10^4 cells/well (200 μl) portions into a 96 well plate. DMEM (25 mM glucose) containing 10% FBS, 55 μM 2-mercaptoethanol, 100 U/ml penicillin and 100 μg/ml streptomycin was used as the medium. The medium was discarded 2 days thereafter using an aspirator, followed by washing once with 200 μl of KRB-HEPES (116 mM NaCl, 4.7 mM KCl, 1.2 mM KH2PO4, 1.2 mM MgSO4, 0.25 mM CaCl2, 25 mM NaHCO3, 0.005% FFA Free BSA, 24 mM HEPES (pH 7.4)) containing 2.8 mM glucose, which was warmed up to 37° C., and subsequent incubation again at 37° C. for 1 hour by adding 200 μl of the same buffer. After discarding the above-mentioned buffer using an aspirator and again washing with the buffer (200 μl), a predetermined concentration of a compound to be tested was added to the KRB-HEPES containing 2.8 mM or 22.4 mM glucose and added to respective wells in 100 μl portions and incubated at 37° C. for 2 hours. The above-mentioned samples were fractioned and diluted 100 times, and the insulin concentration was determined using an insulin RIA kit (Amersham RI). The activity value was shown by a relative activity value (%) at the time of 1 μM of each compound, based on 100% control (DMSO).

T1 sequence (O14842 whole entry R211H): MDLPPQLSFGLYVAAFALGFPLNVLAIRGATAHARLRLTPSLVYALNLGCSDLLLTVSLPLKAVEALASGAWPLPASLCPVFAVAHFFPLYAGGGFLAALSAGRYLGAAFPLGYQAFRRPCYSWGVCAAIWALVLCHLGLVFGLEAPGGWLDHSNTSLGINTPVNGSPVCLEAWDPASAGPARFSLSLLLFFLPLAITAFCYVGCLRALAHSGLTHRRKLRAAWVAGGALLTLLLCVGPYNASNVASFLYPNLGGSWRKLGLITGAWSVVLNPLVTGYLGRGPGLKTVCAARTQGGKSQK

What is called EC50 is the concentration needed to bring the measured effect to its halfway point. Take `Cc1cccc(C)c1-c1cncc(COc2ccc(Cn3oc(=O)[nH]c3=O)cc2)c1` [Example 82]: the EC50 at human GPR40 stood at 930 nM. In the case of `Cc1cc(OCC[C@H](C)O)cc(C)c1-c1cccc(COc2ccc(Cn3oc(=O)[nH]c3=O)cc2)c1C` [Example 193], the EC50 on human GPR40 is 520 nM. The inhibition in vivo at 10 mg/kg in experiment [1] is 46%. For the compound `O=c1[nH]c(=O)n(Cc2ccc(OCc3cccc(-c4cccnc4)c3)cc2)o1` [Example 33], on human GPR40, the EC50 stood at 640 nM. Regarding `Cc1cc(C(=O)NC2CCOCC2)ccc1-c1cccc(COc2ccc(Cn3oc(=O)[nH]c3=O)cc2)c1` [Example 117], on human GPR40, the EC50 came to 290 nM. Moreover, the inhibition in vivo at 10 mg/kg in experiment [1] worked out at 21%. In the case of `Cc1cccc(C)c1-c1cccc(CNc2ccc(Cn3oc(=O)[nH]c3=O)cc2)c1` [Example 406], the EC50 at human GPR40 was 120 nM. In addition, the inhibition in vivo at 10 mg/kg in experiment [1] is 42%.

Consider `COc1cc(F)c(-c2cccc(COc3ccc(Cn4oc(=O)[n-]c4=O)cc3)c2)c(F)c1.[Na+]` [Example 4, sodium 2-{4-[(2′,6′-difluoro-4′-methoxybiphenyl-3-yl)methoxy]benzyl}-3,5-dioxo-1,2,4-oxadiazolidin-4-ide], for which the EC50 on human GPR40 was found to be 350 nM. Further, the Insulin secretion-accelerating action in the experiment with MIN6 cell was determined as 177%. With `Cc1cc(OS(C)(=O)=O)cc(C)c1-c1cccc(COc2ccc(Cn3oc(=O)[nH]c3=O)cc2)c1` [Example 119], on human GPR40, the EC50 was determined as 220 nM. In addition, the inhibition in vivo at 10 mg/kg in experiment [1] is 22%. Consider `CC(=O)NCCCOc1ccc(-c2cccc(COc3ccc(Cn4oc(=O)[nH]c4=O)cc3)c2C)c(C)c1` [Example 189], for which the EC50 at human GPR40 turned out to be 59 nM. In addition, the inhibition in vivo at 10 mg/kg in experiment [1] came to 30%. Take `Cc1cccc(C)c1-c1cccc(C(=O)Nc2ccc(Cn3oc(=O)[nH]c3=O)cc2)c1` [Example 16, sodium 2-(4-{[(2′,6′-dimethylbiphenyl-3-yl)carbonyl]amino}benzyl)-3,5-dioxo-1,2,4-oxadiazolidin-4-ide]: the EC50 on human GPR40 is 450 nM.

As to `O=c1[n-]c(=O)n(Cc2ccc(OCc3cccc(Oc4ccccc4)c3)cc2)o1.[Na+]` [Example 38], the EC50 at human GPR40 was 650 nM. This compound showed an Insulin secretion-accelerating action with MIN6 cell of 228%. As for `O=c1[nH]c(=O)n(Cc2ccc(OCc3cccc(-c4ccc(OCCO)cc4)c3)cc2)o1` [Example 8], the EC50 at human GPR40 turned out to be 31 nM. As to `Cc1cc(OCC[C@H](C)O)ccc1-c1cccc(COc2ccc(Cn3oc(=O)[nH]c3=O)cc2)c1C` [Example 173], at human GPR40, the EC50 stood at 660 nM. Moreover, the inhibition in vivo at 10 mg/kg in experiment [1] amounted to 21%. On to `CCOCCOc1cc(C)c(-c2cccc(COc3ccc(Cn4oc(=O)[n-]c4=O)cc3)c2)c(C)c1.[Na+]` [Example 44], for which the concentration giving a half-maximal response (EC50) on human GPR40 came out at 670 nM. The Insulin secretion-accelerating action in the experiment with MIN6 cell was 287%. The inhibition in vivo at 10 mg/kg in experiment [1] came to 21%. In the case of `O=c1[nH]c(=O)n(Cc2ccc(OCc3cccc(-c4c(Cl)cccc4Cl)c3)cc2)o1` [Example 60], the EC50 on human GPR40 is 460 nM. Also, the inhibition in vivo at 10 mg/kg in experiment [1] is 35%.

`Cc1cccc(C)c1-c1cccc(COc2ccc(Cn3oc(=O)[nH]c3=O)cn2)c1` [Example 99]: the EC50 on human GPR40 came to 450 nM.

Turning to `O=c1[nH]c(=O)n(Cc2ccc(OCc3cccc(Br)c3)cc2)o1` [Example 9, 2-{4-[(3-bromobenzyl)oxy]benzyl}-1,2,4-oxadiazolidine-3,5-dione], the EC50 at human GPR40 was 800 nM. With `COc1cccc(OC)c1-c1cccc(COc2ccc(Cn3oc(=O)[nH]c3=O)cc2)c1` [Example 56], on human GPR40, the EC50 was 760 nM. The inhibition in vivo at 10 mg/kg in experiment [1] is 31%. Turning to `Cc1cccc(C)c1-c1cccc(COc2ccc(Cn3oc(=O)[n-]c3=O)cc2)c1.[Na+]` [Example 39], at human GPR40, the 50% effective concentration (EC50) is 260 nM. This compound displayed an Insulin secretion-accelerating action in the experiment with MIN6 cell of 192%. The inhibition in vivo at 10 mg/kg in experiment [1] was determined as 26%.

As to `COc1cc(C)c(-c2cccc(COc3ccc(Cn4oc(=O)[nH]c4=O)cc3)c2)c(C)c1` [Example 47], the EC50 on human GPR40 is 420 nM. Moreover, the inhibition in vivo at 10 mg/kg in experiment [1] is 36%. `N#Cc1ccc(-c2cccc(COc3ccc(Cn4oc(=O)[nH]c4=O)cc3)c2)cc1` [Example 34] showed an Insulin secretion-accelerating action with MIN6 cell of 169%. `Cc1cc(OCCC(C)(C)O)cc(C)c1-c1cccc(COc2ccc(Cn3oc(=O)[nH]c3=O)cc2)c1C` [Example 166]: the EC50 on human GPR40 stood at 220 nM. Also, the inhibition in vivo at 10 mg/kg in experiment [1] turned out to be 35%. For `Cc1cc(OCCO)ccc1-c1cccc(COc2ccc(Cn3oc(=O)[nH]c3=O)cc2)c1` [Example 14, sodium 2-(4-{[4′-(2-hydroxyethoxy)-2′-methylbiphenyl-3-yl]methoxy}benzyl)-3,5-dioxo-1,2,4-oxadiazolidin-4-ide], the EC50 at human GPR40 is 390 nM. For the same compound, the inhibition in vivo at 10 mg/kg in experiment [1] was 34%.
